Measured values as given in patent publication US9169241B2, “Quinolinyloxyphenylsulfonamides” (Max-Planck-Gesellschaft Zur Forderung der Wissenschaften …, priority 2009, dated 2015).
Like-named read-outs stand apart in the source and are kept apart here.

What was measured:
Hs578T [1] = test: Cell vitality assay (ATP assay, CellTiter-Glo); assay type: cell-based; conditions: Homo sapiens, Hs-578T; HS578T cell line, 72 h; Table Ib; read-out: IC50 ATP-Assay HS578T after 72 h
In short: (§1)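 1000 cells/well incubated 72 h with compound at 12.5 down to 0.195 μM (twofold steps) or DMSO control. Viability measured as cellular ATP by CellTiter-Glo luminescence; IC50 taken as the concentration giving 50% of the DMSO-control ATP level.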

SF126 [2] = test: Cell vitality assay (ATP assay, CellTiter-Glo); assay type: cell-based; conditions: Homo sapiens, SF-126; SF126, 72 h; Table IIa; read-out: IC50 ATP-Assay after 72 h SF126
In short: as §1

U118 [3] = test: Cell vitality assay (ATP assay, CellTiter-Glo); assay type: cell-based; conditions: U118, 72 h; Table IIa; read-out: IC50 ATP-Assay after 72 h U118
In short: as §1

Hs578T [4] = test: Wound healing migration assay; assay type: cell-based; conditions: Homo sapiens, Hs-578T; HS578T cell line; Table Ib
In short: (§2)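 Cells seeded at 150000/24 well, grown to monolayer overnight, scratched with a pipette tip, then treated with compound at 12.5, 6.25 or 3.125 μM versus DMSO. Stopped by crystal violet fixation at 48-72 h once control wounds closed; IC50 taken as 50% wound size between t0 and t48 or t72.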

indicated cell line = test: Wound healing migration assay (Table IV); assay type: cell-based; conditions: compounds at 12.5, 6.25, 3.125 μM, 48 h-72 h
In short: as §2

A172 = test: Matrigel outgrowth assay/branching assay; assay type: cell-based; conditions: Homo sapiens, A 172, Table Vb, read-out: Total branching inhibition in Matrigel A172
In short: (§3)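 Read-out: microscopic images of invasive branching structures at 48 h, 72 h and 96 h. Cells sat on a 3 mg/ml Matrigel layer (set 1 h, 37° C) with compound at 3.125, 1.56 and 0.78 μM or DMSO. A concentration counts as positive only with complete branching inhibition.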

Hs578T [5] = test: Matrigel outgrowth assay/branching assay; assay type: cell-based; conditions: Homo sapiens, Hs-578T; HS578T cell line; Table Ib; read-out: Total branching inhibition in Matrigel HS578T
In short: as §3

SF126 [6] = test: Matrigel outgrowth assay/branching assay; assay type: cell-based; conditions: Homo sapiens, SF-126, Table Vb, read-out: Total branching inhibition in Matrigel SF126
In short: as §3

U118 [7] = test: Matrigel outgrowth assay/branching assay; assay type: cell-based; conditions: Table Vb, read-out: Total branching inhibition in Matrigel U118
In short: as §3

[8] = Homo sapiens, A 172, A172 cells, read-out: IC50 Wound healing Assay A172
[9] = Homo sapiens, SF-126, SF126 cells, read-out: IC50 Wound healing Assay SF126
[10] = U118 cells, read-out: IC50 Wound healing Assay U118

SMILES | IC50 (Hs578T [1]) [µM] | IC50 (SF126 [2]) [µM] | IC50 (U118 [3]) [µM] | IC50 (Hs578T [4]) [µM] | IC50 (indicated cell line; [8]) [µM] | IC50 (indicated cell line; [9]) [µM] | IC50 (indicated cell line; [10]) [µM] | IC100 (A172) [µM] | IC50 (Hs578T [5]) [µM] | IC100 (SF126 [6]) [µM] | IC100 (U118 [7]) [µM] | melting point [°C]
COc1cc2c(Oc3ccc(NS(=O)(=O)c4c(Cl)cccc4Cl)cc3Cl)ccnc2cc1OCCCN1CCN(C)CC1 [Example 119, 2,6-Dichloro-N-(3-chloro-4-{6-methoxy-7-[3-(4-methyl-piperazin-1-yl)-propoxy]-quinolin-4-yloxy}-phenyl)-benzenesulfonamide] | ≤ 12.5 | ≤ 12.5 | ≤ 12.5 | ≤ 12.5 | ≤ 12.5 | ≤ 12.5 | ≤ 12.5 | ≤ 12.5 | ≤ 10 | ≤ 12.5 | ≤ 12.5 | 171 to 172
COC(=O)c1sccc1S(=O)(=O)Nc1ccc(Oc2ccnc3cc(OCCCN4CCCCC4)c(OC)cc23)c(F)c1 [Example 155, 3-{3-Fluoro-4-[6-methoxy-7-(3-piperidin-1-yl-propoxy)-quinolin-4-yloxy]-phenylsulfamoyl}-thiophene-2-carboxylic acid methyl ester] | ≤ 12.5 | ≤ 12.5 | ≤ 12.5 | ≤ 12.5 | ≤ 12.5 | ≤ 12.5 | ≤ 12.5 | ≤ 12.5 | 10 to 25 | ≤ 12.5 | ≤ 12.5 | 138 to 139
COC(=O)c1sccc1S(=O)(=O)Nc1ccc(Oc2ccnc3cc(OCCCN4CCC(C)CC4)c(OC)cc23)c(F)c1 [Example 156, 3-(3-Fluoro-4-{6-methoxy-7-[3-(4-methyl-piperidin-1-yl)-propoxy]-quinolin-4-yloxy}-phenylsulfamoyl)-thiophene-2-carboxylic acid methyl ester] | ≤ 12.5 | ≤ 12.5 | ≤ 12.5 | ≤ 12.5 | ≤ 12.5 | ≤ 12.5 | ≤ 12.5 | > 12.5 | 10 to 25 | ≤ 12.5 | ≤ 12.5 | 139 to 141
COC(=O)c1sccc1S(=O)(=O)Nc1ccc(Oc2ccnc3cc(OCCCN4CCOCC4)c(OC)cc23)c(F)c1 [Example 157, 3-{3-Fluoro-4-[6-methoxy-7-(3-morpholin-4-yl-propoxy)-quinolin-4-yloxy]-phenylsulfamoyl}-thiophene-2-carboxylic acid methyl ester] | ≤ 12.5 | ≤ 12.5 | ≤ 12.5 | ≤ 12.5 | ≤ 12.5 | ≤ 12.5 | ≤ 12.5 | > 12.5 | 10 to 25 | ≤ 12.5 | > 12.5 | 167 to 168
COC(=O)c1sccc1S(=O)(=O)Nc1ccc(Oc2ccnc3cc(OCCCN4CCN(C)CC4)c(OC)cc23)c(F)c1 [Example 158, 3-(3-Fluoro-4-{6-methoxy-7-[3-(4-methyl-piperazin-1-yl)-propoxy]-quinolin-4-yloxy}-phenylsulfamoyl)-thiophene-2-carboxylic acid methyl ester] | ≤ 12.5 | ≤ 12.5 | ≤ 12.5 | ≤ 12.5 | ≤ 12.5 | ≤ 12.5 | ≤ 12.5 | > 12.5 | 10 to 25 | ≤ 12.5 | ≤ 12.5 | 146 to 148
COc1cc2c(Oc3ccc(NS(=O)(=O)c4c(F)cccc4F)cc3F)ccnc2cc1OCCCN(C)C [Example 178, N-{4-[7-(3-Dimethylamino-propoxy)-6-methoxy-quinolin-4-yloxy]-3-fluoro-phenyl}-2,6-difluoro-benzenesulfonamide] | ≤ 12.5 | ≤ 12.5 | ≤ 12.5 | 12.5 to 50 | ≤ 12.5 | ≤ 12.5 | ≤ 12.5 | > 12.5 | ≤ 10 | ≤ 12.5 | ≤ 12.5 | 125 to 127
COc1cc2c(Oc3ccc(NS(=O)(=O)c4ccccc4OC(F)(F)F)cc3F)ccnc2cc1OCCCN(C)C [Example 179, N-{4-[7-(3-Dimethylamino-propoxy)-6-methoxy-quinolin-4-yloxy]-3-fluoro-phenyl}-2-trifluoromethoxy-benzenesulfonamide] | ≤ 12.5 | ≤ 12.5 | ≤ 12.5 | ≤ 12.5 | ≤ 12.5 | ≤ 12.5 | 12.5 to 50 | > 12.5 | 10 to 25 | ≤ 12.5 | ≤ 12.5 | 94 to 96
COc1cc2c(Oc3ccc(NS(=O)(=O)c4c(Cl)cccc4Cl)cc3F)ccnc2cc1OCCCN(C)C [Example 181, 2,6-Dichloro-N-{4-[7-(3-dimethylamino-propoxy)-6-methoxy-quinolin-4-yloxy]-3-fluoro-phenyl}-benzenesulfonamide] | ≤ 12.5 | ≤ 12.5 | ≤ 12.5 | ≤ 12.5 | ≤ 12.5 | ≤ 12.5 | ≤ 12.5 | > 12.5 | ≤ 10 | ≤ 12.5 | ≤ 12.5 | 197 to 198
COC(=O)c1sccc1S(=O)(=O)Nc1ccc(Oc2ccnc3cc(OCCCN(C)C)c(OC)cc23)c(F)c1 [Example 184, 3-{4-[7-(3-Dimethylamino-propoxy)-6-methoxy-quinolin-4-yloxy]-3-fluoro-phenylsulfamoyl}-thiophene-2-carboxylic acid methyl ester] | ≤ 12.5 | ≤ 12.5 | ≤ 12.5 | ≤ 12.5 | ≤ 12.5 | ≤ 12.5 | ≤ 12.5 | > 12.5 | 10 to 25 | ≤ 12.5 | ≤ 12.5 | 80 to 82
COc1cc2c(Oc3c(Cl)cc(NS(=O)(=O)c4c(F)cccc4F)cc3Cl)ccnc2cc1OCCCN1CCC(C)CC1 [Example 209, N-(3,5-Dichloro-4-{6-methoxy-7-[3-(4-methyl-piperidin-1-yl)-propoxy]-quinolin-4-yloxy}-phenyl)-2,6-difluoro-benzenesulfonamide] | ≤ 12.5 | ≤ 12.5 | ≤ 12.5 | ≤ 12.5 | ≤ 12.5 | ≤ 12.5 | ≤ 12.5 | ≤ 12.5 | ≤ 10 | ≤ 12.5 | ≤ 12.5 | 146 to 151
